Experimental data as given in patent US6727253B2, “Treatment of accidental extravasation of anthracyclines” (Antianthra APS, priority 1999, dated 2004).
Read-outs that look alike come from different tables or passages of the source.

Columns and labels:
[1] = test system: SC daunorubicin induced wounds in mice; details: for AUC / DW / FW / TTW: Table A
Description: The mice were euthanized after healing of all wounds.
The effect of various doses of ICRF-187 was investigated in Example 3.
Comparison of two concentrations of sc daunorubicin were compared with and without simultaneous treatment with ICRF-187 250 mg/kg.
ICRF-187 was administered at the same time as daunorubicin, 3 hours after, and 6 hours after, respectively. Saline served as control. The dose of daunorubicin was 3 mg/kg so and ICRF-187 was administered IP in a 250 mg/kg solution. Twenty-eight mice were used. The results are depicted in data sheet #6 and the mean AUCs are shown graphically in FIG. 5.
100 mg/kg ICRF-187 was injected into the subcutaneous papule produced by injected daunorubicin. This treatment was compared to intralesional saline control, IP saline control, and IP treatment with ICRF-187.
[…]. Seven experiments (n=6, 7, 7, 9, 9, 9, and 9) with 3 mg/kg daunorubicin SC plus saline IP at t=0 and seven experiments (n=6, 7, 7, 9, 9, 8, and 9) with 3 mg/kg daunorubicin SC plus 250 mg/kg ICRF-187 IP at t=0tin two experiments (n=9 and 4) the ICRF-187 doses were 62,5 mg/kg and 375 mg/kg IP, respectively, in two (n=7 and 9) the dose was 125 mg/kg. ICRF-187 250 mg/kg was administered IV in one (n=9).

[2] = test system: wound after doxorubicin SC in swine; assay: Pilot study on swine, doxorubicin SC; format: in vivo; details: 3 mg doxorubicin SC, ICRF-187 25 mg/kg IV at t=0
Description: (§1) A danish porker weighting approximately 30 kg was used. The animals were fully anesthesized and artificially ventilated during SC injection of 1 ml of anthracycline.

[3] = test system: wound after daunorubicin SC in swine; assay: Pilot study on swine, daunorubicin SC; format: in vivo; details: 1 ml daunorubicin SC
Description: as §1

[4] = test system: extravasation of doxorubicin in a patient; assay: Clinical results in a patient with doxorubicin extravasation; format: in vivo
[5] = Example 3, daunorubicin 3 mg/kg sc + ICRF-187 250 mg/kg IP
[6] = Example 3, daunorubicin 3 mg/kg sc + ICRF-187 375 mg/kg IP
[7] = Example 4, daunorubicin 1 mg/kg sc + ICRF-187 250 mg/kg IP simultaneous
[8] = Example 4, daunorubicin 3 mg/kg sc + ICRF-187 250 mg/kg IP simultaneous
[9] = Example 5, daunorubicin 1 mg/kg sc + ICRF-187 250 mg/kg IP
[10] = Example 5, daunorubicin 3 mg/kg sc + ICRF-187 250 mg/kg IP
[11] = Example 6, daunorubicin 3 mg/kg sc + ICRF-187 250 mg/kg IP 3 hours after daunorubicin
[12] = Example 6, daunorubicin 3 mg/kg sc + ICRF-187 250 mg/kg IP 6 hours after daunorubicin
[13] = Example 6, daunorubicin 3 mg/kg sc + ICRF-187 250 mg/kg IP at the same time
[14] = Example 7, daunorubicin 3 mg/kg sc + 0.05 ml ICRF-187 100 mg/kg IL
[15] = Example 7, daunorubicin 3 mg/kg sc + ICRF-187 250 mg/kg IP
[16] = daunorubicin 1 mg/kg SC + DEX 250 mg/kg IP at t=0, pooled data
[17] = daunorubicin 3 mg/kg SC + DEX 125 mg/kg IP at t=0, +3h and +6h
[18] = daunorubicin 3 mg/kg SC + DEX 125 mg/kg IP at t=0, pooled data
[19] = daunorubicin 3 mg/kg SC + DEX 250 mg/kg IP at t=0, pooled data
[20] = daunorubicin 3 mg/kg SC + DEX 250 mg/kg IP at t=0, pooled data, listed as DEX
[21] = daunorubicin 3 mg/kg SC + DEX 250 mg/kg IP at t=+3h
[22] = daunorubicin 3 mg/kg SC + DEX 250 mg/kg IP at t=+6h
[23] = daunorubicin 3 mg/kg SC + DEX 250 mg/kg IP day 0, 1, and 2
[24] = daunorubicin 3 mg/kg SC + DEX 250 mg/kg IV at t=0
[25] = daunorubicin 3 mg/kg SC + DEX 375 mg/kg IP at t=0
[26] = daunorubicin 3 mg/kg SC + DEX 62,5 mg/kg IP at t=0
[27] = daunorubicin 3 mg/kg SC + DEX 62,5 mg/kg IP at t=0, +3h and +6h
[28] = pooled, daunorubicin 3 mg/kg SC, ICRF-187 250 mg/kg IP at t=0, p<0.0001

C[C@@H](CN1CC(=O)NC(=O)C1)N1CC(=O)NC(=O)C1 [ICRF-187, (+)-1,2-bis(3,5-dioxopiperazinyl-1-yl)propane]
Mean AUC [1, 5]: 395 mm^2 × days | Mean DWw ± SEM [1, 5]: 29.2 ± 1.1 days | Mean TTWw ± SEM [1, 5]: 7.8 ± 1.1 days | Nw/NG [1, 5]: 83% | Mean AUC [1, 6]: 57 mm^2 × days | Mean DWw ± SEM [1, 6]: 27.0 ± 0.0 days | Mean TTWw ± SEM [1, 6]: 4.0 ± 0.0 days | Nw/NG [1, 6]: 25% | reduction of the AUC ([1]; Example 3, daunorubicin 3 mg/kg sc, ICRF-187 250 mg/kg vs saline, p<0.05): 48% | reduction of the AUC ([1]; Example 3, daunorubicin 3 mg/kg sc, ICRF-187 375 mg/kg vs saline, p<0.05): 93% | reduction in AUC ([1]; Example 4, daunorubicin 1 mg/kg sc (low dose), ICRF-187 250 mg/kg IP, p<0.05): 100% | Mean AUC [1, 7]: 0 mm^2 × days | Nw/NG [1, 7]: 0% | reduction in AUC ([1]; Example 4, daunorubicin 3 mg/kg sc (high dose), ICRF-187 250 mg/kg IP, p<0.05): 75% | Mean AUC [1, 8]: 313 mm^2 × days | Mean DWw ± SEM [1, 8]: 14.0 ± 1.5 days | Mean TTWw ± SEM [1, 8]: 12.0 ± 3.5 days | Nw/NG [1, 8]: 43% | Mean AUC [1, 9]: 50 mm^2 × days | Mean DWw ± SEM [1, 9]: 16.0 ± 4.0 days | Mean TTWw ± SEM [1, 9]: 10.5 ± 3.5 days | Nw/NG [1, 9]: 22% | reduction of AUC ([1]; Example 5, daunorubicin 1 mg/kg sc, ICRF-187 250 mg/kg IP, p<0.05): 73% | Mean AUC [1, 10]: 158 mm^2 × days | Mean DWw ± SEM [1, 10]: 13.7 ± 1.7 days | Mean TTWw ± SEM [1, 10]: 9.9 ± 1.8 days | Nw/NG [1, 10]: 78% | reduction of AUC ([1]; Example 5, daunorubicin 3 mg/kg sc, ICRF-187 250 mg/kg IP, p<0.05): 83% | Mean AUC [1, 11]: 421 mm^2 × days | Mean DWw ± SEM [1, 11]: 21.0 ± 4.0 days | Mean TTWw ± SEM [1, 11]: 7.0 ± 0.6 days | Nw/NG [1, 11]: 43% | Mean AUC [1, 12]: 926 mm^2 × days | Mean DWw ± SEM [1, 12]: 24.9 ± 0.8 days | Mean TTWw ± SEM [1, 12]: 6.7 ± 0.6 days | Nw/NG [1, 12]: 100% | Mean AUC [1, 13]: 326 mm^2 × days | Mean DWw ± SEM [1, 13]: 19.6 ± 0.7 days | Mean TTWw ± SEM [1, 13]: 7.7 ± 0.5 days | Nw/NG [1, 13]: 100% | AUC reduced ([1]; Example 6, daunorubicin 3 mg/kg sc, ICRF-187 250 mg/kg IP 6 hours delay, statistically non-significant): 34% | AUC reduced ([1]; Example 6, daunorubicin 3 mg/kg sc, ICRF-187 250 mg/kg IP at t=0, p<0.05): 77% | AUC reduced ([1]; Example 6, daunorubicin 3 mg/kg sc, ICRF-187 250 mg/kg IP at t=+3 hours, p<0.05): 70% | Mean AUC [1, 14]: 403 mm^2 × days | Mean DWw ± SEM [1, 14]: 19.4 ± 2.3 days | Mean TTWw ± SEM [1, 14]: 6.9 ± 1.6 days | Nw/NG [1, 14]: 78% | Mean AUC [1, 15]: 562 mm^2 × days | Mean DWw ± SEM [1, 15]: 19.0 ± 0.9 days | Mean TTWw ± SEM [1, 15]: 9.6 ± 0.7 days | Nw/NG [1, 15]: 89% | reduction of the AUC ([1]; Example 7, daunorubicin 3 mg/kg sc, ICRF-187 250 mg/kg IP, p<0.05): 51% | AUC [1, 16]: 28 (± 22) mm^2×days | DW [1, 16]: 16.0 (± 4.0) days | FW [1, 16]: 13% | TTW [1, 16]: 10.5 (± 3.5) days | AUC [1, 17]: 112 (± 37) mm^2×days | DW [1, 17]: 18.0 (± 0.0) days | FW [1, 17]: 22% | TTW [1, 17]: 16.5 (± 0.5) days | AUC [1, 18]: 692 (± 115) mm^2×days | DW [1, 18]: 20.6 (± 0.8) days | FW [1, 18]: 88% | TTW [1, 18]: 8.4 (± 0.6) days | AUC [1, 19]: 373 (± 48) mm^2×days | DW [1, 19]: 17.4 days | FW [1, 19]: 78% | TTW [1, 19]: 9.7 days | DW [1, 20]: 17.4 (± 0.6) days | TTW [1, 20]: 9.7 (± 0.5) days | AUC [1, 21]: 420 (± 206) mm^2×days | DW [1, 21]: 21.0 (± 4.0) days | FW [1, 21]: 43% | TTW [1, 21]: 7.0 (± 0.6) days | AUC [1, 22]: 927 (± 163) mm^2×days | DW [1, 22]: 24.9 (± 0.8) days | FW [1, 22]: 100% | TTW [1, 22]: 6.7 (± 0.6) days | AUC [1, 23]: 128 (± 34) mm^2×days | DW [1, 23]: 13.3 (± 1.2) days | FW [1, 23]: 75% | TTW [1, 23]: 17.7 (± 1.0) days | AUC [1, 24]: 479 (± 141) mm^2×days | DW [1, 24]: 19.3 (± 1.3) days | FW [1, 24]: 67% | TTW [1, 24]: 9.2 (± 1.2) days | AUC [1, 25]: 57 (± 57) mm^2×days | DW [1, 25]: 23.0 (± 0.0) days | FW [1, 25]: 25% | TTW [1, 25]: 4.0 (± 0.0) days | AUC [1, 26]: 662 (± 223) mm^2×days | DW [1, 26]: 19.4 (± 1.3) days | FW [1, 26]: 89% | TTW [1, 26]: 8.1 (± 0.5) days | AUC [1, 27]: 0 mm^2×days | FW [1, 27]: 0% | prevention of lesions ([1]; daunorubicin induced lesions, ICRF-187 250 mg/kg IP three days in a row): completely prevented | protection by IP injection compared to IV administration ([1]; daunorubicin induced wounds, ICRF-187 250 mg/kg): no statistically significant difference | degree of protection, triple-treatment ([1]; daunorubicin, ICRF-187 62,5 or 125 mg/kg IP at 0, 3 and 6 hours): at least the same degree of protection as a single injection of 250 mg/kg ICRF-187 IP | protection with delayed administration ([1]; daunorubicin, ICRF-187 administered 3 hours after): no different from the protection obtained by immediate ICRF-187 administration | protection with delayed administration ([1]; daunorubicin, ICRF-187 delay 6 hours): protection was lost | treatment-related deaths ([1]; mouse, in vivo): no treatment-related deaths | reduction in AUC ([1]; pooled, daunorubicin 3 mg/kg SC, ICRF-187 125 mg/kg IP, p=0.0175 vs 250 mg/kg): 45% | mean duration of wounds reduced by [1, 28]: 35% | mean time to wounds delayed by [1, 28]: 76% | mean AUC reduced by ([1]; pooled, daunorubicin 3 mg/kg SC, single ICRF-187 250 mg/kg IP at t=0, p<0.0001): 70% | ulcer development [2]: did not develope an ulcer | wound appearance ([3]; ICRF-187 25 mg/kg IV daily for three days): no wound appeared | wound appearance ([3]; ICRF-187 50 mg/kg IV at t=0): a small wound appeared | ulcer or skin-necrosis ([4]; 149 mg doxorubicin infused subcutaneously, ICRF-187 day 1-3, 30 days evaluation): No ulcer or signs of skin-necrosis developed | side effects from the treatment ([4]; ICRF-187 1000, 1000, 500 mg/m^2 on day 1, 2, 3, initiated 2 h 30 m after extravasation): no side effects
